In PubChem BioAssay (NCI):
Values joined by “and” are separate entries in the source; they are usually repeats but may differ in a detail not shown here. Equal values may be shown once.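 Five concentrations, 48 hours, 96-well plates. GI50: concentration for 50% inhibition of growth. TGI denotes the concentration required for complete inhibition of growth.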

What was measured:
Assay in all cases: inhibition of tumour cell growth, NCI panel, 48 h
OVCAR-5 ovarian = system: OVCAR-5 ovarian
RPMI-8226 leukemia = system: RPMI-8226 leukemia
HL-60(TB) leukemia = system: HL-60(TB) leukemia
NCI-H460 lung = system: NCI-H460 lung
M14 melanoma = system: M14 melanoma
KM20L2 colon = system: KM20L2 colon
M19-MEL melanoma = system: M19-MEL melanoma
HT29 colon = system: HT29 colon
UACC-257 melanoma = system: UACC-257 melanoma
NCI/ADR-RES ovarian = system: NCI/ADR-RES ovarian
BT-549 breast = system: BT-549 breast

SMILES	TGI (OVCAR-5 ovarian) [µM]	TGI (RPMI-8226 leukemia) [µM]	TGI (HL-60(TB) leukemia) [µM]	TGI (NCI-H460 lung) [µM]	TGI (M14 melanoma) [µM]	TGI (KM20L2 colon) [µM]	TGI (M19-MEL melanoma) [µM]	TGI (HT29 colon) [µM]	TGI (UACC-257 melanoma) [µM]	TGI (NCI/ADR-RES ovarian) [µM]	TGI (BT-549 breast) [µM]	GI50 (RPMI-8226 leukemia)
Cc1nc2cc(Nc3ccccc3C(=O)O)ccc2s1	> 100	> 100	> 100	> 100	> 100	> 100	> 100	> 100				
NC(=O)CC(N=Cc1nc(-c2ccccc2)oc1O)C(=O)O (stereo not drawn)	> 100	> 100	> 100	> 100	> 100	> 100	> 100	> 100	> 100			
C(=Nc1ccc(-c2nc3ccccc3s2)cc1)c1ccc[nH]1	51.4	55.9	72.6	38.1	34.2			38.8	31.2	44.6	46.2	
CC1(C)OC2OC(C(COS(=O)(=O)C(F)(F)F)N=[N+]=[N-])C(OC(=O)c3ccccc3)C2O1 (stereo not drawn)	> 100	> 100	> 100	> 100	> 100			> 100	> 100	> 100	> 100	> 100 µM and 26.7 µM
CCn1c(CCl)nc2c1C(=O)c1ccccc1C2=O	3.25	> 100	6.85	3.9	3.22			3.47	3.36	6.5	4.09	
C[C@]12CC(c3ccccc3O1)C(C(=O)Nc1nc(C34CC5CC(CC(C5)C3)C4)cs1)C(=O)N2 (stereo partly drawn)	> 100	> 100	> 100	> 100	> 100			> 100	> 100	> 100	> 100	
NC(=S)N1N=C2c3ccccc3CC[C@H]2[C@@H]1c1ccc(Cl)cc1	> 100	> 100	61.6	> 100	> 100	> 100	> 100	> 100	95			
Cc1cc(S(=O)(=O)Nc2n[nH]c(N)n2)c(Cl)cc1Cl	> 10	> 10	> 10	> 10	> 10			> 10	> 10	> 10	> 10	
CCC(C)C1=C(O)[N+]2([O-])Oc3ccc(-c4c(O)c(O)c(-c5ccc(OC(C)=O)cc5)c(OC(C)=O)c4OC(C)=O)cc3OC2(C(C)CC)C(=O)N1O (stereo not drawn)	> 50	> 50	> 50	> 50	> 50			> 50	> 50	> 50	> 50	
COC1(CC[C@@H](C)COC2OC(CO)C(O)C(O)C2O)O[C@H]2C[C@H]3[C@@H]4CC=C5C[C@@H](OC6OC(CO)C(O)C(OC7OC(CO)C(O)C(O)C7O)C6OC6OC(C)C(O)C(O)C6O)CC[C@]5(C)[C@H]4CC[C@]3(C)[C@H]2[C@@H]1C (stereo partly drawn)	> 39.4	> 88.3	26.8	14.8	5.41			> 23.1	26.3	33.6	31.8	
NC(Cc1ccc2nc3c4ccccc4c(=O)cc-3oc2c1)C(=O)O (stereo not drawn)	> 100	> 100	> 100	> 100	> 100			> 100	> 100	> 100	> 100	
N/C1=C/C(=O)NC(=O)c2c(c3ccccc3oc2=O)C1	> 100	> 100	> 100	> 100	> 100			> 100	> 100	> 100	> 100	
CC(=O)c1ccc(NC(=O)C(=O)C(C#N)CC(C)(C)C=O)cc1 (stereo not drawn)	> 100	> 100	> 100	> 100	> 100	> 100	> 100	> 100	> 100			
CC(Oc1ccccc1)C(=O)NNC(=O)OC(C)(C)C (stereo not drawn)	> 100	> 100	> 100	> 100	> 100			> 100	> 100	> 100	> 100	
O=C1C(c2c(O)[nH]c3ccc(Br)cc23)=Nc2ccc(Br)cc21	> 100	> 100	> 100	> 100	> 100			> 100	> 100	> 100	> 100	
C/C(=N\O)c1cccc[n+]1Cc1ccccc1	> 100	> 100	> 100	> 100	> 100			> 100	> 100	> 100	> 100	
C/C(=C/CC[C@]1(CO)CC[C@]2(C)[C@H](CC[C@@H]3[C@@]4(C)CC[C@H](OC5OC(CO)C(O)C(O)C5OC5OC(CO)C(O)C(O)C5O)C(C)(C)[C@@H]4CC[C@]32C)[C@H]1O)CO (stereo partly drawn)	> 100	> 100	> 100	> 100	> 100			> 100	> 100	> 100	> 100	
O=c1[nH]cnc2c(COCCO)c[nH]c12	> 100	> 100	> 100	> 100	> 100	> 100	> 100	> 100	> 100			
O=C1CSC(c2ccc(Cl)cc2Cl)N1c1ccc(Oc2ccc(Cl)cc2)c(Cl)c1 (stereo not drawn)	> 100	68.3	48.3	84.4	> 100			30.6	> 100	55.1	68.2	
CC1=CP(=O)(c2c(C(C)C)cc(C(C)C)cc2C(C)C)CCC1Cl (stereo not drawn)	32.5	40.9	42.8	35.3	29.8			41.8	24.9	40.2	33.4	
COc1ccc(NCC(=O)Nn2c(-c3ccccc3)nc3ccccc3c2=O)cc1	> 100	> 100	> 100	> 100	> 100			> 100	> 100	59.1	65.4	
C(#CP(c1ccccc1)c1ccccc1)P(C#CP(c1ccccc1)c1ccccc1)c1ccccc1	> 100	> 100	> 100	> 100	13			> 100	> 100	> 100	> 100	
